Values quoted from earlier work, collected in patent publication US10487097B2, “4,6-di-(O-thiophosphate)-inositol-1,2,3,5-tetra-O-sulfate for C. difficile infection” (priority 2015, dated 2019).

Conditions: colon lumen, background statement

O=P(O)(O)O[C@H]1[C@H](OP(=O)(O)O)[C@@H](OP(=O)(O)O)[C@H](OP(=O)(O)O)[C@@H](OP(=O)(O)O)[C@H]1OP(=O)(O)O [IP6, inositol hexakisphosphate]
precipitation due to high calcium concentration: precipitates
